Consider 1 compound from US20210186982A1, “METHODS AND COMPOSITIONS FOR TREATING MELANOMA” (UNIVERSITE NICE SOPHIA ANTIPOLIS, priority 2017, published 2021).

Data set [1] in a line: Annexin-V-FITC/7-AAD flow cytometry, cell viability. Conditions: human, A375 cells; solvent 87%. It counts as cell-based. How it is done:
Cell death was evaluated by flow cytometry following staining with Annexin-V-FITC and 7-AAD (eBiosciences) as previously described 24.
For orientation: In flow cytometry, cells or beads pass a laser one at a time.

The test system of data set [2] is A375 cells. In words: ROS production (CM-H2DCFDA, flow cytometry). Conditions: 2 μM b-AP15 for 30 min. It is filed as cell-based, human. As to the method:
ROS levels were measured using the redox-sensitive dye CM-H2DCFDA (Thermo Fischer Scientific). After treatment, cells were stained with 10 μM CM-H2DCFDA in PBS for 30 min at 37° C. Cells were washed with PBS and resuspended in PBS 5 mM EDTA/1% BSA. ROS production was analysed using a MACSQuant® Analyzer 10 cytometer (Miltenyi Biotech).

For data set [3], the system named is K48-linked poly-ubiquitinated proteins. In words: Immunoblot analysis of poly-ubiquitinated proteins in A375 cells. It counts as cell-based, human. How it is done:
Melanoma cells were harvested as described before 6. Cells were lysed at 4° C. in RIPA buffer (Millipore) supplemented with Pierce™ Protease and Phosphatase Inhibitor Mini Tablets, and briefly sonicated. Cell lysates were cleared at 16,000 xg for 15 min at 4° C. Whole cell lysates were subjected to SDS-PAGE and immunoblot analysis as previously described 6.
On the technique in general: A western blot detects proteins with antibodies after separation by electrophoresis.

The target in data set [4] is T1, USP14 (Homo sapiens, UniProt P54578).
T1 construct: endogenous in cells; host or cells: A375 (also 1205Lu, 501Mel, SKMel28, 451Lu) melanoma cells; cell lysates
In words: DUB trap assay (HA-Ub-VS probe, anti-USP14 immunoblot). It counts as cell-based. How it is done:
Cells were harvested, washed with PBS and pellets were dried then freezed (−80° C.) and subsequently lysed in ice-cold buffer containing 50 mM Tris (pH 7.4), 5 mM MgCl2, 250 mM sucrose, 1 mM DTT, 2 mM ATP, and 1 mM PMSF and mild sonication. Lysates were cleared by centrifugation, and 20 μg of protein extracts were incubated for 25 min at 37° C. with 2 μM HA-Ub-VS (Boston Biochem, Cambridge, Mass.). After boiling in reducing sample buffer, labelled cell lysates were subjected to immunoblot analysis as described above using the indicated antibodies.

Data set [5] deals with 16 melanoma cell lines. In words: MTS proliferation assay, collection of melanoma cell lines. Conditions: Homo sapiens, range over 16 melanoma cell lines, read-out: IC50 of b-AP15 for 16 melanoma cell lines. It is filed as cell-based. As to the method: (§1) Cell proliferation was measured by a MTS conversion assay using the CellTiter 96® Aqueous Non-Radioactive Cell Proliferation kit (Promega, Madison Wis.) according to the manufacturer instructions. Cells were seeded in 96-well plates (5×10^4 cells/well) and treated with different reagents for the indicated times and incubated at 37° C. with MTS reagent. The optical density of each sample at 490 nm was determined with a Multiskan FC plate reader (Thermo Fisher Scientific, Waltham, Mass. USA).
A general note: Tetrazolium assays rely on reduction of a dye to a coloured formazan, in cell work by metabolically active cells.

Data set [6] has as its system Mel1617. In words: MTS conversion assay, melanoma cell proliferation. It is filed as cell-based. Conditions: Homo sapiens, MET, BRAF*/p53*, resistance none, 48 h MTS, read-out: b-AP15 IC50. As to the method: as §1
The test system of data set [7] is m238R. In words: MTS conversion assay, melanoma cell proliferation. It is filed as cell-based. Conditions: Homo sapiens, MET, BRAFV600E/PTEN*/RTK*, resistance vemurafenib, 48 h MTS, read-out: b-AP15 IC50. How it is done:
as §1

Data set [8] concerns Mel1617R. In words: MTS conversion assay, melanoma cell proliferation. It counts as cell-based. Conditions: Homo sapiens, MET, BRAF*/p53*/?, resistance dabrafenib, 48 h MTS, read-out: b-AP15 IC50. As to the method:
as §1

The test system of data set [9] is m229. In words: MTS conversion assay, melanoma cell proliferation. To be noted: Homo sapiens, MET, BRAFV600E/PTEN*, resistance none, 48 h MTS, read-out: b-AP15 IC50. It is filed as cell-based. As to the method:
as §1

The test system of data set [10] is WM793. In words: MTS conversion assay, melanoma cell proliferation. It is filed as cell-based. Conditions: Homo sapiens, VGP, BRAFV600E/PTEN*, resistance none, 48 h MTS, read-out: b-AP15 IC50. As to the method:
as §1

Data set [11] deals with A375DR. In words: MTS conversion assay, melanoma cell proliferation. It is filed as cell-based. Conditions: Homo sapiens, MET, BRAFV600E/CDKN2A*/?, resistance vemurafenib/ERKi, 48 h MTS, read-out: b-AP15 IC50. As to the method: as §1
Data set [12] has as its system WM266-4. In words: MTS conversion assay, melanoma cell proliferation. It counts as cell-based. Conditions: Homo sapiens, WM 266-4, MET, BRAFV600D/PTEN*, resistance none, 48 h MTS, read-out: b-AP15 IC50. How it is done: as §1
Data set [13] relates to WM164. In words: MTS conversion assay, melanoma cell proliferation. Conditions: Homo sapiens, MET, BRAFV600E/CDKN2A*, resistance none, 48 h MTS, read-out: b-AP15 IC50. It is filed as cell-based. How it is done: as §1
Data set [14] concerns MeWo. In words: MTS conversion assay, melanoma cell proliferation. It counts as cell-based. To be noted: Homo sapiens, MET, p53*/CDKN2A*, resistance none, 48 h MTS, read-out: b-AP15 IC50. How it is done: as §1
Data set [15] concerns SBCL2. In words: MTS conversion assay, melanoma cell proliferation. To be noted: Homo sapiens, RGP, NRASQ61K, resistance none, 48 h MTS, read-out: b-AP15 IC50. It is filed as cell-based. As to the method: as §1
Data set [16] concerns m249. In words: MTS conversion assay, melanoma cell proliferation. It counts as cell-based. Conditions: Homo sapiens, MET, BRAFV600E/PTEN*, resistance none, 48 h MTS, read-out: b-AP15 IC50. How it is done:
as §1

Data set [17] deals with 451Iu. In words: MTS conversion assay, melanoma cell proliferation. It counts as cell-based. Conditions: Homo sapiens, MET, BRAFV600E/p53*, resistance none, 48 h MTS, read-out: b-AP15 IC50. As to the method: as §1
The subject of data set [18] is m238. In words: MTS conversion assay, melanoma cell proliferation. It is filed as cell-based. Conditions: Homo sapiens, MET, BRAFV600E/PTEN*, resistance none, 48 h MTS, read-out: b-AP15 IC50. As to the method: as §1
Data set [19] relates to m249R. In words: MTS conversion assay, melanoma cell proliferation. It counts as cell-based. Conditions: Homo sapiens, MET, BRAFV600E/PTEN*/NRAS*, resistance vemurafenib, 48 h MTS, read-out: b-AP15 IC50. How it is done:
as §1

For data set [20], the system named is HMV2. In words: MTS conversion assay, melanoma cell proliferation. It counts as cell-based. To be noted: Homo sapiens, HMV-2, MET, NRAS*, resistance none, 48 h MTS, read-out: b-AP15 IC50. How it is done: as §1

T1 sequence (P54578 whole entry): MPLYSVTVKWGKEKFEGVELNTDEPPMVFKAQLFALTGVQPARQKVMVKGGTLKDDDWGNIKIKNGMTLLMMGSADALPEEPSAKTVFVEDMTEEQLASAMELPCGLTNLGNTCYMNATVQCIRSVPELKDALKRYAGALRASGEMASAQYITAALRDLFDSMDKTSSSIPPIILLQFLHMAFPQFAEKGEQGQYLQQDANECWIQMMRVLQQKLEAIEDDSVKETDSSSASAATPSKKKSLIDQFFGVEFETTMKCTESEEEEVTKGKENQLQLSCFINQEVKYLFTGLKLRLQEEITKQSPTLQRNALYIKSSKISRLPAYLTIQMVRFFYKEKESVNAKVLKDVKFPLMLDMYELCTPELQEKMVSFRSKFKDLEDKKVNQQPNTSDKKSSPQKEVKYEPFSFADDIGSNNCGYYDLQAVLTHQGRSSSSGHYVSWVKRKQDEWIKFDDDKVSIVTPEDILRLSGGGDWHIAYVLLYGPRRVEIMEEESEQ

In general, viability refers to the share of living cells, or the viability signal relative to a control. In general, IC50 refers to the concentration needed to halve the response being measured. As for `Cc1cc(C(=O)CN2CCCC2)c(C)n1-c1ccc(F)cc1` [b-AP15], the viability in [1] is 52%. Besides, in [2], the ROS production entry is on record as “triggered a rapid burst of ROS”. Moreover, the K48-linked poly-ubiquitinated proteins entry in [3] is “induced a rapid accumulation”. For the same compound, the “USP14 activity in 12051u, 501Mel, SKMe128 and 4511u cells” value in [4] (2 μM) is on record as “efficiently blocked the activity of USP14”. The “USP14 activity (USP14-Ub-HA) in A375 cells” value in data set [4] (A375 melanoma cells) is on record as “efficiently blocked the activity of USP14 in a dose-dependent manner”. Besides, the IC50 in data set [5] was 400 to 2000 nM; in data set [6], 1400 nM; in [7], 200 nM; in data set [8] it was 900 nM; in [9] it was 1200 nM; in data set [10], 300 nM. The half-inhibitory concentration (IC50) in data set [11] amounted to 1300 nM; in data set [12] it was 500 nM; in data set [13], 900 nM; in data set [14], 700 nM; in [15], 400 nM; in [16], 2000 nM. The IC50 in data set [17] amounted to 900 nM; in data set [18], 400 nM; in data set [19], 3000 nM; in data set [20], 1800 nM.
